Results: US5853748A, “Pharmaceutical compositions” (priority 1994, dated 1998)
Read-outs that look alike come from different tables or passages of the source.

How the values were obtained:
[1] = in vitro; settings: human, hbss
Method: (§1) A neutral red stock solution was prepared at concentration of 0.5 mg/ml in DMEM (Dulbecco's Modified Eagle Medium) (pH 4.5) which was then diluted 1:10 with TCM (Tissue Culture Medium) or Hanks Balanced Salt Solution (HBSS) before use.
(§2) Test solutions were prepared containing various concentrations of a bile salt in either HBSS or in one of the 0.1M buffer solution. The following bile salts were tested:
Test plates were set up by aliquotting 200 μl of a Caco-2 cell suspension containing 1×10^5 cells/ml into each well of a 96-well microtitre plate. The outermost wells were filled with 200 μl saline alone, to counteract the effects of evaporation. The cells were incubated in high glucose Dulbecco's modified eagles medium (DMEM) tissue culture medium (TCM) at […], 5% CO2 in air, for 8 days, with feeding where necessary. The cells were then used for performance of either an initial insult or a recovery study. […]
Neutral red stain is actively taken up by viable cells. Cells with more permeable membranes will lose stain into the bathing medium and thus cell membrane permeability can be directly assessed after exposure to the test material by quantifying the stain remaining in the cell. […]
In order to quantify the amount of stain remaining in the cells, absorbances were measured on a plate reader at 550 nm, and readings compared with buffer controls to assess leakage of the stain from the cells. […]

[2] = in vitro; settings: human, hbss; remark: listed apart in the source
Method: as §1, §2
(§3) Test plates were set up by aliquotting 200 μl of a Caco-2 cell suspension containing 1×10^5 cells/ml into each well of a 96-well microtitre plate. The outermost wells were filled with 200 μl saline alone, to counteract the effects of evaporation. The cells were incubated in high glucose Dulbecco's modified eagles medium (DMEM) tissue culture medium (TCM) at […], 5% CO2 in air, for 8 days, with feeding where necessary. The cells were then used for performance of either an initial insult or a recovery study.
(§4) B. Recovery from Toxic Insult
(§5) Neutral red stain is actively taken up by viable cells and non-viable cells will not stain. Cells with increased cell membrane permeability will have a reduced stain content. […] A 2-hour exposure period is used together with a 3-hour recovery period in optimal growth material during which stain is taken up. The following protocol was followed:
(§6) TCM was removed from each well and replaced with 150 μl of the appropriate buffer.
(§7) Buffer was removed from wells in column 2 and replaced with 150 μl of test solutions at the highest concentration.
(§8) 150 μof test solutions was added to each of wells in column 3, mixed gently by aspirating repeatedly, and 150 μl transferred to wells in column 4. This process was repeated down the plate to obtain two-fold serial dilutions of test material along each row. One row on each plate was allocated to HBSS as a control, and one row for a buffer control if necessary. The cells were incubated for 2 hours at 37° C. in CO2.
(§9) The supernatant liquid was then removed from cell monolayers in each well and replaced with 200 μl of stain.
(§10) The plates were incubated for 3 hours at 37° C., 5% CO2. […]

[3] = in vitro; settings: human, hbss; remark: listed apart in the source
Method: as §2
(§11) A MTT stock solution was prepared at a concentration of 5 mg/ml in distilled water, which was then diluted 1:10 with TCM before use.
(§12) Test plates were set up by aliquotting 200 μl of a Caco-2 cell suspension containing 1×10^5 cells/ml into wells of a 96-well microtitre plate. The outermost wells on each plate were left blank, and filled with 200 μl saline, to counteract the effects of evaporation. The cells were is incubated in high glucose DMEM tissue culture medium (TCM) at 37° C., 5% CO2 in air, for 8 days, with feeding when necessary.
(§13) MTT is a tetrazolium salt which is converted by mitochondrial dehydrogenases in viable cells to form an insoluble purple crystal. Dead cells would not effect this conversion. Crystal formation can be quantified colorimetrically and used to asses mitochondrial activity and therefore cell viability. The preparation of MTT stock solution, test solutions and buffer solution is described above.
(§14) In this procedure, cells are first incubated with test materials and then incubated with MTT and measurements are made to determine the extent to which incubation with test materials has altered the mitochondrial activity of the cells. A two hour exposure period is used together with a three hour recovery period during which time staining is conducted.
(§15) TCM was removed from each well and replaced with 150 Al of the appropriate buffer.
as §7
(§16) 150 μl of test solutions was added to each of wells in column 3, mixed gently by aspirating repeatedly, and 150 μl transferred to wells in column 4. This process was repeated down the plate to obtain two-fold serial dilutions of test material along each row. […]
(§17) Absorbances were measured on a plate reader as the difference between 550 and 650 nm, and readings compared with buffer controls to assess change in mitochondrial activity. […]

[4] = system: Caco-2 cells; assay: in vitro
Method: as §1, §2, §3, §4, §5, §6, §7, §8, §9, §10

[5] = system: Caco-2 cells; assay: in vitro; remark: listed apart in the source
Method: as §2, §11, §12, §13, §14, §15, §7, §16, §17

[6] = In vivo efficacy study, salmon calcitonin, intrajejunal, pigs (plasma calcium); design: species or system Pigs (large white×large white/landrace); settings: […] iu sCT intrajejunal in 2 ml, with 25 or 50 mg sodium chenodeoxy cholate, pH 7.5 or 6.5
Method: Dosing of salmon calcitonin (sCT) was administered by instillation via the indwelling cannula into the jejunum, followed by flushing with warm sterile water. 8 ml blood samples were removed at various times before and after dosing, and divided into two portions. One portion was allowed to clot at room temperature, and the serum removed and stored at -20° C. until ready for use. The other portion was transferred to heparinised tubes to which 4000 kiu aprotinin was added, and the plasma decanted after centrifugation and stored at -20° C. Serum calcium levels were measured colorimetrically after complexation with the calcium-sensitive chelating agent arsenazo III.
Nine animals were used in the study, and formulations were administered on three separate days, each separated by at least one day, on a random three-way crossover basis, so that all pigs received all three treatments.

[7] = cited from earlier work
[8] = at the pH values contemplated (7.5 to 9); cited from earlier work
[9] = sodium cholate (Kojima et al); cited from earlier work
[10] = for pH: MES
Excerpt: (§18) The amount of agent necessary to adjust the pH to within the range contemplated is difficult to determine directly because the intestinal pH can vary between 5 to 7, and its aqueous content can vary, as can its intrinsic buffering capacity, which acts to maintain a low pH. Consequently considerations aimed at determining the appropriate quantity of agent controlling pH need to take into account a "worst-case" scenario. An indication may be obtained by observing the pH achieved upon adding a potential pH-adjusting agent to a 50 mM solution of MES (morpholino ethane sulphonic acid) adjusted to pH 6.0.

[11] = for pH: water
Excerpt: as §18
A 0.1M solution of sodium bicarbonate in distilled water was prepared (buffer solution). Similar 0.1M solutions of sodium acetate, sodium borate and sodium carbonate in distilled water were also prepared. These are also referred to in the examples as buffers.

## C[C@H](CCC(=O)NCCS(=O)(=O)O)[C@H]1CC[C@H]2[C@@H]3CC[C@@H]4C[C@H](O)CC[C@]4(C)[C@H]3C[C@H](O)[C@]12C [Taurodeoxycholate, sodium taurodeoxycholate]
[1]
  MNTC at 2 h: 313 µg/mL
[2]
  MNTC at 2 h: 313 µg/mL
[3]
  MNTC at 2 h: 313 µg/mL

## C[C@H](CCC(=O)O)[C@H]1CC[C@H]2[C@@H]3[C@H](O)C[C@@H]4C[C@H](O)CC[C@]4(C)[C@H]3CC[C@]12C [Chenodeoxycholate, sodium chenodeoxycholate]
[4]
  percentage release of stain (FIG. 4): much less stain is released from cells which have been incubated at pH above 7.5
[5]
  percentage reduction in mitochondrial activity (FIG. 5): a marked reduction in toxicity is achieved under conditions of elevated pH

## salmon calcitonin [sCT]
[6]
  efficacy of bile salts in enhancing uptake of calcitonin (plasma calcium concentration with time, FIG. 6): dependent on the concentration of bile salt present, and the pH at which it is administered

## somatostatin
[7]; with a cholanic acid derivative such as chenodeoxycholic acid or ursodeoxycholic acid (GB-A-2244918)
  bioavailability of somatostatin: can be improved

## insulin
[8]
  solubility: poorly soluble

## C[C@H](CCC(=O)NCC(=O)O)[C@H]1CC[C@H]2[C@@H]3CC[C@@H]4C[C@H](O)CC[C@]4(C)[C@H]3C[C@H](O)[C@]12C [Glycodeoxycholate, sodium glycodeoxycholate]
[1]
  MNTC at 2 h: 313 µg/mL
[2]
  MNTC at 2 h: 313 µg/mL
[3]
  MNTC at 2 h: 313 µg/mL

## C[C@H](CCC(=O)O)[C@H]1CC[C@H]2[C@@H]3[C@H](O)C[C@@H]4C[C@H](O)CC[C@]4(C)[C@H]3C[C@H](O)[C@]12C [Cholate, sodium cholate]
[7]; sodium cholate (Kojima et al)
  absorption of various substances: capable of increasing the absorption of various substances
[9]
  release of cell membrane components: accelerated

## C[C@H](CCC(=O)NCC(=O)O)[C@H]1CC[C@H]2[C@@H]3[C@H](O)C[C@@H]4C[C@H](O)CC[C@]4(C)[C@H]3C[C@H](O)[C@]12C [Glycocholate, sodium glycocholate]
[7]; in combination with taurocholate or glycocholate (Kakemi et al)
  bioavailability of various substances: could be increased

## O=C(O)O [Bicarbonate, sodium bicarbonate]
[10]; 0.002 M
  pH: 6.42
[10]; 0.004 M
  pH: 6.58
[10]; 0.008 M
  pH: 6.86
[10]; 0.016 M
  pH: 7.14
[10]; 0.031 M
  pH: 7.40
[10]; 0.062 M
  pH: 7.68
[10]; 0.500 M
  pH: 8.05
[10]; 1.000 M
  pH: 7.96
[10]; about 0.045M (about 40 mg sodium bicarbonate in 10 ml)
  pH in the gut: about 7.5
[11]; 0.002 M
  pH: 8.86
[11]; 0.004 M
  pH: 8.67
[11]; 0.008 M
  pH: 8.63
[11]; 0.016 M
  pH: 8.57
[11]; 0.031 M
  pH: 8.55
[11]; 0.062 M
  pH: 8.49
[11]; 0.1M, confirmed at the end of each of the experiments
  pH of 0.1M solution: ~8.0
[11]; 0.500 M
  pH: 8.16
[11]; 1.000 M
  pH: 8.02
[11]; saturated (<2M) in water
  pH of saturated solution: 8.01
